pIC50: −log10 of the molar value.
Assays:
[1] = Mouse PK study (IV and PO); assay type: in vivo; settings: male, C57BL/6, mouse, plasma, male C57BL/6 mice
Procedure: This example describes the pharmacokinetic (PK) data obtained for various compounds of the present disclosure, from studies using mice. The following PK parameters were calculated: • Bioavailability (F %) were calculated using the linear/log trapezoidal rule • Peak plasma concentrations (Cmax (ng/mL)) were taken directly from the plasma concentration vs. time profiles for the PO group • Area under the curve e.g., the area under the concentration curve from time 0 to infinity (AUC0-inf(ng*h/mL)). Experimental Procedures
After intravenous (IV) and oral (PO) administration at 2 mg/kg and 10 mg/kg to male C57BL/6 mice, respectively, the blood samples were collected at the designed sampling time points. All blood samples were transferred into pre-chilled commercial polyethylene microcentrifuge tubes containing K2-EDTA as an anticoagulant. Samples were processed for plasma by centrifugation. Plasma samples was transferred into polypropylene tubes pre-chilled on dry ice and then quickly frozen over dry ice and kept at −70±10° C. until LC-MS/MS analysis. Mice plasma samples were analyzed using qualified bioanalytical methods based on protein precipitation followed by LC-MS/MS analysis. Individual plasma concentration data of each compound was subjected to noncompartmental pharmacokinetic analysis using Phoenix WinNonlin™. Nominal doses were used for pharmacokinetic parameters calculation.

[2] = test system: LPA 18:2 level in mouse plasma; experiment: In vitro LPA assay, reduction of LPA 18:2 level in mouse plasma (LC-MS/MS); assay type: biochemical; settings: 2 hr at 37° C., LPA 18:2 reduction
[3] = test system: LPA 18:2 level in rat plasma; experiment: In vitro LPA assay, reduction of LPA 18:2 level in rat plasma (LC-MS/MS); assay type: biochemical; settings: 2 hr at 37° C., LPA 18:2 reduction
hATX/ENPP2 = hATX/ENPP2 (Homo sapiens, UniProt Q13822); experiment: hATX/ENPP2 biochemical assay using 16:0-LPC as substrate (Amplex Red/choline oxidase/HRP fluorescence); settings: hENPP2 2.5 nM, LPC (16:0) substrate
Procedure, shortened: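 Enzyme preincubated with compounds 15 min at room temperature in 50 mM Tris-HCl pH 8.0, 140 mM NaCl, 5 mM CaCl2, 0.01% Triton X-100. Reaction started with 80 μM LPC (16:0) stock plus Amplex Red/choline oxidase/HRP mix; fluorescence (ex 530/em 590 nm) read kinetically. IC50 from slope between 60 and 70 min.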

SMILES: CCc1nc2ccc(-c3ccc(N4CCC(C(=O)N5CCOCC5)CC4)nc3)cn2c1N(C)c1nc(-c2ccc(F)cc2)c(C#N)s1 [Compound 126, 2-((2-ethyl-6-(6-(4-(morpholine-4-carbonyl)piperidin-1-yl)pyridin-3-yl)imidazo[1,2-a]pyridin-3-yl)(methyl)amino)-4-(4-fluorophenyl)thiazole-5-carbonitrile]
- AUC(0-inf) ([1]; IV 2 mg/kg and PO 10 mg/kg study): 38300 ng·h/mL
- bioavailability ([1]; po, 10 mg/kg, IV 2 mg/kg and PO 10 mg/kg, read-out: F % (bioavailability)): 59.2%
- Cmax ([1]; po, 10 mg/kg, PO group 10 mg/kg): 5580 ng/mL
- pIC50 [2]: 6.10 to 6.70
- pIC50 [3]: ≥ 6.70
- pIC50 (hATX/ENPP2): ≥ 7.70

From patent publication US11970493B2, “Autotaxin inhibitor compounds” (ILDONG PHARMACEUTICAL CO., LTD., priority 2020, dated 2024)
